Source: the NIST ThermoML archive (doi:10.1016/j.jct.2013.05.009)

Test: xn = mol fraction of the nth substance listed
Conditions: 101 kPa, Liquid; for mass density: Vibrating tube method; for speed of sound: fixed-path interferometer

CC(C)CC(C)(C)C [2,2,4-trimethylpentane] + CCCCO
Conditions	mass density, 298.15 K [kg/m3]	mass density, 308.15 K [kg/m3]	mass density, 318.15 K [kg/m3]	mass density, 328.15 K [kg/m3]	speed of sound, 298.15 K [m/s]	speed of sound, 308.15 K [m/s]	speed of sound, 318.15 K [m/s]	speed of sound, 328.15 K [m/s]
x1 = 0.03101	799.41	791.7	783.95	776.09	1229.7	1195.8	1162.1	1128.6
x1 = 0.07555	790.82	783.03	775.22	767.29	1216	1181.3	1146.9	1112.6
x1 = 0.1426	778.75	770.87	762.95	754.91	1196.8	1161.1	1125.6	1090.3
x1 = 0.2049	768.51	760.53	752.52	744.39	1180.8	1144.2	1107.8	1071.7
x1 = 0.2621	759.76	751.67	743.61	735.41	1167.3	1130	1092.5	1056.1
x1 = 0.3176	751.87	743.75	735.6	727.34	1155.5	1117.5	1079.8	1042.5
x1 = 0.3932	741.94	733.74	725.51	717.19	1141.1	1102.3	1063.9	1025.9
x1 = 0.4553	734.44	726.18	717.92	709.56	1130.7	1091.4	1052.6	1014.1
x1 = 0.5458	724.43	716.13	707.81	699.42	1117.4	1077.5	1038.1	999.2
x1 = 0.6067	718.27	709.93	701.6	693.2	1109.8	1069.5	1029.7	990.4
x1 = 0.6787	711.51	703.15	694.8	686.39	1101.9	1061.3	1021.1	981.6
x1 = 0.742	706.01	697.65	689.3	680.9	1095.9	1055.1	1014.7	974.8
x1 = 0.8095	700.58	692.21	683.87	675.5	1090.6	1049.5	1008.8	968.8
x1 = 0.8683	696.2	687.84	679.5	671.13	1086.7	1045.4	1004.6	964.3
x1 = 0.9078	693.42	685.07	676.75	668.4	1084.5	1043.1	1002.2	961.8
x1 = 0.9422	691.1	682.76	674.47	666.16	1082.9	1041.5	1000.6	960.2
x1 = 0.9619	689.83	681.51	673.25	664.98	1082.3	1040.7	1000	959.7
x1 = 0.981	688.66	680.37	672.16	663.97	1082.1	1040.9	1000.1	959.7
x1 = 1	687.68	679.45	671.3	663.17	1082.7	1041.1	1000.1	959.4

CCCCO [butan-1-ol] + Cc1ccccc1
Conditions	mass density, 298.15 K [kg/m3]	mass density, 308.15 K [kg/m3]	mass density, 318.15 K [kg/m3]	mass density, 328.15 K [kg/m3]	speed of sound, 298.15 K [m/s]	speed of sound, 308.15 K [m/s]	speed of sound, 318.15 K [m/s]	speed of sound, 328.15 K [m/s]
x2 = 0	805.71	798.05	790.36	782.56	1240	1206.6	1173.4	1140.4
x2 = 0.02621	807.5	799.76	791.98	784.09	1241.1	1207.3	1173.8	1140.4
x2 = 0.06979	810.42	802.54	794.62	786.6	1242.9	1208.6	1174.5	1140.6
x2 = 0.1334	814.51	806.45	798.34	790.12	1245.4	1210.3	1175.4	1140.8
x2 = 0.1909	818.08	809.86	801.59	793.21	1247.6	1211.8	1176.3	1141
x2 = 0.2606	822.26	813.87	805.42	796.86	1250.1	1213.6	1177.4	1141.5
x2 = 0.3391	826.8	818.22	809.59	800.85	1252.9	1215.6	1178.6	1142
x2 = 0.4066	830.59	821.86	813.1	804.22	1255.4	1217.5	1180	1142.8
x2 = 0.473	834.2	825.36	816.47	807.48	1258	1219.6	1181.6	1144.1
x2 = 0.5406	837.84	828.87	819.88	810.78	1261	1222	1183.7	1145.7
x2 = 0.6007	841.01	831.96	822.88	813.7	1263.9	1224.6	1185.9	1147.6
x2 = 0.6711	844.68	835.54	826.37	817.12	1267.8	1228.2	1189.1	1150.5
x2 = 0.7376	848.14	838.93	829.68	820.37	1272.3	1232.3	1192.8	1154
x2 = 0.7967	851.2	841.92	832.63	823.27	1277	1236.8	1197.1	1158
x2 = 0.8691	854.94	845.61	836.27	826.88	1284.3	1243.8	1203.8	1164.4
x2 = 0.9327	858.35	848.98	839.62	830.24	1293.6	1252.7	1212.2	1171.9
x2 = 0.9649	860.1	850.75	841.43	832.09	1299.9	1258.4	1217	1175.9
